Reference: patent US10251937B2, “Retro-inverso analogs of spadin display increased antidepressant effects” (MEDINCELL, priority 2014, dated 2019)
Square brackets hold non-standard residues; d marks the D form. Peptide text beside a SMILES is read from it.

Experiments:
TREK-1 channels = molecular target: T1, TREK-1 channels (Homo sapiens, UniProt O95069); experiment: TREK-1 current inhibition, whole cell patch clamp on h-TREK-1/HEK cell line; assay type: cell-based
T1 construct: expressed in transfected cells
T1 sequence (O95069 1-426): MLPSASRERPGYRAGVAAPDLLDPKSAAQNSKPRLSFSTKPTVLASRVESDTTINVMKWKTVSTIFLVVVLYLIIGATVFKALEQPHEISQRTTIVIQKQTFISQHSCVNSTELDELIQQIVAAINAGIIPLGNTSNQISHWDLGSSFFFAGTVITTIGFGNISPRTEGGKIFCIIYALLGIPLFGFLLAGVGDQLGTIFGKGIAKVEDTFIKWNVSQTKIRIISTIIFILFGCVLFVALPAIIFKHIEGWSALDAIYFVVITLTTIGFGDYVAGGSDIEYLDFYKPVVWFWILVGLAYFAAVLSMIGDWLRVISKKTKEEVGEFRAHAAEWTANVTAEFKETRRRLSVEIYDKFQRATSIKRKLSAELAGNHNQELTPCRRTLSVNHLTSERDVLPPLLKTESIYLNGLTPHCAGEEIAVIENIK
Experimental: The human-TREK-1/HEK293 cell line (h-TREK-1/HEK) (Moha ou Maati, H. et al. (2011). PloS one, 6 (10), e25602) and HEK-IKS cell line (Ducroq, J. et al, (2010) Br J Pharmacol, 159(1):93-101) were grown in the presence of 0.5 mg/mL G418 in Dulbecco's modified Eagle's medium supplemented with 10% (v/v) heat inactivated fetal bovine serum containing 1% (v/v) penicillin/streptomycin in an atmosphere of 95% air/5% CO2.
All electrophysiological experiments were performed on h-TREK-1/HEK cells seeded at a density of 20 000 cells/35-mm dish after 2-6 days of culture. All electrophysiological recordings were performed in whole cell configuration of the patch clamp technique. Each current was evaluated by using a RK 400 patch clamp amplifier (Axon Instrument, USA), low-pass filtered at 3 kHz and digitized at 10 kHz using a 12-bit analog-to-digital converter digidata (1322 series, Axon Instrument, USA). All current amplitudes are expressed in current densities. Results were expressed as mean±standard error of the mean (SEM). […] The bath solution contained 150 mM NaCl, 5 mM KCl, 3 mM MgCl2, 1 mM CaCl2 and 10 mM HEPES adjusted to pH 7.4 with NaOH. The pipette solution contained 155 mM KCl, 3 mM MgCl2, 5 mM EGTA and 10 mM HEPES adjusted to pH 7.2 with KOH. TREK-1 currents were evaluated in the presence of a cocktail of potassium channel inhibitors (K+ blockers: 3 mM 4-aminopyridine (4-AP), 10 mM tetraethylammonium (TEA), 10 μM glibenclamide, 100 nM apamin and 50 nM charybdotoxin). All experiments were performed at room temperature (21-22° c.). Stimulation protocols and data acquisition were carried out using a microcomputer (Dell Pentium) with a commercial software and hardware (pClamp 8.2). Currents were recorded by voltage clamp steps to membrane potentials of −100 to +60 mV in 20 mV steps applied from a holding potential of −80 mV. Duration of depolarization pulses were […], and the pulse cycling rate was 5 sec. TREK-1 current amplitudes were evaluated at the end of the stimulation pulses. Cells were continuously superfused with a microperfusion system. Inhibitory effects of spadin and analogs were performed on arachidonic acid pre-activated TREK-1 currents. Spadin and analogs were tested at the unique dose of 100 nM. For both Analog 3 (SEQ ID:4) and Analog 8 (SEQ ID:9) concentration-dependant inhibitions were performed by applying concentrations ranging between 1 nM to 1 μM. IKS currents were activated by voltage clamp steps of membrane potentials from −100 to +100 mV in 20 mV steps applied from a holding potential of −80 mV. Tail currents were generated by repolarization to −40 mV. Duration of both depolarization and repolarization pulses were 2.4 s, and the pulse cycling rate was 10 s. IKR currents were activated by voltage clamp steps of membrane potentials from −100 to +100 mV in 10 mV steps applied from a holding potential of […] and tail currents were generated by a repolarization to […]. Duration of both depolarization and repolarization pulses were 1 s, and the pulse cycling rate was 5 s. The amplitudes of IKS and IKR currents were calculated at both the end of the first pulse and the peak of the tail pulse.
Neuropharmacology 62, 278, (2012)) was used as reference.

C57Bl/6J mice = experiment: Tail-immersion (tail flick) test, thermal pain; assay type: in vivo; details: 10 μg/kg i.v., 30 min before test, n=10
Experimental: Mice were i.v. injected with 10 μg/kg of spadin in a bolus of 100 μL or 100 μL of a saline solution (0.9% NaCl) 30 min before the beginning of the test. The tail was immersed in a water bath at 48° C. until withdrawal was observed (cut-off time: 30 s). Two separate withdrawal latency time determinations were averaged.

human-IKS current = human-IKS current (Homo sapiens, UniProt P51787); experiment: Cardiac IKs current, whole cell patch clamp in HEK-IKS cell line
Experimental: All electrophysiological recordings were performed in whole cell configuration of the patch clamp technique. Each current was evaluated by using a RK 400 patch clamp amplifier (Axon Instrument, USA), low-pass filtered at 3 kHz and digitized at 10 kHz using a 12-bit analog-to-digital converter digidata (1322 series, Axon Instrument, USA). All current amplitudes are expressed in current densities. Results were expressed as mean±standard error of the mean (SEM). […] The bath solution contained 150 mM NaCl, 5 mM KCl, 3 mM MgCl2, 1 mM CaCl2 and 10 mM HEPES adjusted to pH 7.4 with NaOH. The pipette solution contained 155 mM KCl, 3 mM MgCl2, 5 mM EGTA and 10 mM HEPES adjusted to pH 7.2 with KOH. […] All experiments were performed at room temperature (21-22° c.). Stimulation protocols and data acquisition were carried out using a microcomputer (Dell Pentium) with a commercial software and hardware (pClamp 8.2). Currents were recorded by voltage clamp steps to membrane potentials of −100 to +60 mV in 20 mV steps applied from a holding potential of −80 mV. Duration of depolarization pulses were 0.825 ms, and the pulse cycling rate was 5 sec. […] Cells were continuously superfused with a microperfusion system. […] IKS currents were activated by voltage clamp steps of membrane potentials from −100 to +100 mV in 20 mV steps applied from a holding potential of −80 mV. Tail currents were generated by repolarization to −40 mV. Duration of both depolarization and repolarization pulses were 2.4 s, and the pulse cycling rate was 10 s. […] The amplitudes of IKS and IKR currents were calculated at both the end of the first pulse and the peak of the tail pulse.

[1] = molecular target: hERG (human Ether a go-go Related Gene) current IKr (Homo sapiens, UniProt Q12809); experiment: Cardiac IKr (hERG) current, whole cell patch clamp in transfected HEK cells
Experimental: HEK-293 native cells were grown in serum in an atmosphere of 95% air/5% CO2 in Dulbecco's modified Eagle's medium supplemented with 10% (v/v) heat inactivated fetal bovine containing 1% (v/v) of penicillin/streptomycin and Glutamax×1. Cells were plated at a density of 20000 cells/35 mm dish and after 24 h cells were transfected using the JetPEI® method (Polyplus, France) with 25 ng/35 mm dish of p-IRES-HERG channel vector. Patch clamp experiments were carried out 48 h after transfection
All electrophysiological recordings were performed in whole cell configuration of the patch clamp technique. Each current was evaluated by using a RK 400 patch clamp amplifier (Axon Instrument, USA), low-pass filtered at 3 kHz and digitized at 10 kHz using a 12-bit analog-to-digital converter digidata (1322 series, Axon Instrument, USA). All current amplitudes are expressed in current densities. Results were expressed as mean±standard error of the mean (SEM). […] The bath solution contained 150 mM NaCl, 5 mM KCl, 3 mM MgCl2, 1 mM CaCl2 and 10 mM HEPES adjusted to pH 7.4 with NaOH. The pipette solution contained 155 mM KCl, 3 mM MgCl2, 5 mM EGTA and 10 mM HEPES adjusted to pH 7.2 with KOH. […] All experiments were performed at room temperature (21-22° c.). Stimulation protocols and data acquisition were carried out using a microcomputer (Dell Pentium) with a commercial software and hardware (pClamp 8.2). Currents were recorded by voltage clamp steps to membrane potentials of −100 to +60 mV in 20 mV steps applied from a holding potential of −80 mV. Duration of depolarization pulses were 0.825 ms, and the pulse cycling rate was 5 sec. […] Cells were continuously superfused with a microperfusion system. […] Tail currents were generated by repolarization to −40 mV. […] IKR currents were activated by voltage clamp steps of membrane potentials from −100 to +100 mV in 10 mV steps applied from a holding potential of +80 mV and tail currents were generated by a repolarization to +40 mV. […] The amplitudes of IKS and IKR currents were calculated at both the end of the first pulse and the peak of the tail pulse.

[2] = 0 mV, in the presence of 10 μM, n=5

hERG (human Ether a go-go Related Gene) current IKr, sequence (Q12809 whole entry): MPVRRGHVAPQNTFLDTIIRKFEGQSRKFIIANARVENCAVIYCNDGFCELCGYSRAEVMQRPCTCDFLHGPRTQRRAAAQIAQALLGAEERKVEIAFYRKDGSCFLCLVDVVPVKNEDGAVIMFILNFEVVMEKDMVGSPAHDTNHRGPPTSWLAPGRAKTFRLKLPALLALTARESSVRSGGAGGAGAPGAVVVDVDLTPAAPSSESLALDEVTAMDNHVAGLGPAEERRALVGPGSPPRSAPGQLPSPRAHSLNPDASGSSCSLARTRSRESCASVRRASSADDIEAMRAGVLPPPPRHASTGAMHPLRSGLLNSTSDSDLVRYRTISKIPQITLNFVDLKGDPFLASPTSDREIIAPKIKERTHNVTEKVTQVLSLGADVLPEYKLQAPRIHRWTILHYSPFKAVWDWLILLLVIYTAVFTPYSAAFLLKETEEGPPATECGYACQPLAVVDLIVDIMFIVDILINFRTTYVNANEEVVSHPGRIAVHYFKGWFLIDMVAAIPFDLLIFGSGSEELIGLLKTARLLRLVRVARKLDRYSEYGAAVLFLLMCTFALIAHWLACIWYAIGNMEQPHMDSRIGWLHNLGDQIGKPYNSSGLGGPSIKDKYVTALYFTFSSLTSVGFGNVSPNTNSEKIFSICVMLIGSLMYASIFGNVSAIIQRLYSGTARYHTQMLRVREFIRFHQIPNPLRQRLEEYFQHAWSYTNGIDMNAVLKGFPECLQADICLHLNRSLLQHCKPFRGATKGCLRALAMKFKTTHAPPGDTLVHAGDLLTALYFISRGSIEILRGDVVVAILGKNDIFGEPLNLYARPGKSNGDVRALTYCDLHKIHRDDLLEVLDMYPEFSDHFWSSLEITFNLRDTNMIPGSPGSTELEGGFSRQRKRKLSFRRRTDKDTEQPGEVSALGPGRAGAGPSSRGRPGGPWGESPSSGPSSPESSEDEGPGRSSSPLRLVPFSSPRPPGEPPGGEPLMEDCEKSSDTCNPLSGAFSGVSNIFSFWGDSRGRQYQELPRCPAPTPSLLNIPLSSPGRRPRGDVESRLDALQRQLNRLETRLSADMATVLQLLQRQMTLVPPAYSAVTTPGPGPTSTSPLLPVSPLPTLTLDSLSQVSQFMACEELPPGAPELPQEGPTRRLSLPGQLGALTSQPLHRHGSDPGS

Question: Which results are given for `CC[C@@H](C)[C@@H](NC(=O)CNC(=O)[C@H](NC(=O)[C@@H](CO)NC(=O)[C@@H](Cc1c[nH]c2ccccc12)NC(=O)CNC(=O)[C@@H](CC(C)C)NC(=O)[C@@H](CCCNC(=N)N)NC(C)=O)C(C)C)C(=O)N1CCC[C@@H]1C(=O)NCC(=O)N[C@H](CO)C(=O)N[C@H](Cc1c[nH]c2ccccc12)C(=O)N[C@H](CCCNC(=N)N)C(=O)N1CCC[C@@H]1C(=O)N[C@H](CC(C)C)C(=O)N1CCC[C@@H]1C(=O)N[C@H](C)C(N)=O` [Analog 3, Ac-rlGwsvGipGswrplpa-NH2] (Ac-[dR][dL]G[dW][dS][dV]G[dI][dP]G[dS][dW][dR][dP][dL][dP][dA]-NH2)?
Answer: blockade effect on TREK-1 channel activity compared to spadin (TREK-1 channels; 100 nM, n=10 to 12): increased blockade effect; higher affinity for TREK-1 channels than spadin (TREK-1 channels; compared to spadin IC50): 6 fold; tail withdrawal time (C57Bl/6J mice): 11.32 ± 1.04 s; IKS tail current density (human-IKS current; [2]): 8.33±2.06 pA/pF; IKs current density at the end of pulses (human-IKS current; [2]): 17.58±4.03 pA/pF; effect on currents generated by IKS channels expressed in HEK cells (human-IKS current; 10 μM): did not modify currents; IKr current density at end of first pulse [1, 2]: 224.48±35.94 pA/pF; IKr tail current density [1, 2]: 212.99±38.38 pA/pF; effect on currents generated by IKr channels expressed in HEK cells ([1]; 10 μM): did not modify currents
